Assay results taken from patent EP4230620A1, “SUBSTITUTED N-AMINO-N-BENZOIC ACID URACILS, THEIR SALTS AND USE OF SAID COMPOUNDS AS HERBICIDAL AGENTS” (Bayer Aktiengesellschaft, priority 2022, dated 2023).

Columns and labels:
Type in all cases: in vivo
Amaranthus retroflexus = assay: Post-emergence herbicidal action in greenhouse against AMARE; conditions: post-emergence spray, 600 l/ha water, visual rating after ca. 3 weeks vs untreated controls, 100% = plants dead, 0% = like control plants
Description: (§1) Biologische Beispiele: • Die folgenden Abkürzungen werden für die in den folgenden Tabellen aufgeführten Kultur- und Schadpflanzen verwendet: ABUTH: Abutilon theophrasti ALOMY: Alopecurus myosuroides AMARE: Amaranthus retroflexus BRSNS: Brassica napus DIGSA: Digitaria sanguinalis ECHCG: Echinochloa crus-galli GLXMA: Glycine max KCHSC: Kochia scoparia LOLRI: Lolium rigidum MATIN: Matricaria inodora ORYZA: Oryza sativa PHPBU: Pharbitis purpurea POLCO: Polygonum convolvulus SETVI: Setaria viridis VERPE: Veronica persica VIOTR: Viola tricolor TRZAS: Triticum aestivum ZEAMX: Zea mays • A. Herbizide Wirkung im Nachauflauf
(§2) Samen von mono- bzw. dikotylen Unkrautpflanzen wurden in Kunststoff- oder Holzfasertöpfen in sandigem Lehmboden ausgelegt, mit Erde abgedeckt und im Gewächshaus unter kontrollierten Wachstumsbedingungen angezogen. 2 bis 3 Wochen nach der Aussaat wurden die Versuchspflanzen im Einblattstadium behandelt. Die in Form von benetzbaren Pulvern (WP) oder als Emulsionskonzentrate (EC) formulierten erfindungsgemäßen Verbindungen wurden dann als wässrige Suspension bzw. Emulsion unter Zusatz von 0,5% Additiv mit einer Wasseraufwandmenge von umgerechnet 600 l/ha auf die grünen Pflanzenteile gesprüht. Nach ca. 3 Wochen Standzeit der Versuchspflanzen im Gewächshaus, unter optimalen Wachstumsbedingungen, wurde die Wirkung der Präparate visuell im Vergleich zu unbehandelten Kontrollen bonitiert. Beispielsweise bedeutet 100% Wirkung = Pflanzen sind abgestorben, 0% Wirkung = wie Kontrollpflanzen.
(§3) In den nachstehenden Tabellen A1 bis A11 sind die Wirkungen ausgewählter Verbindungen der allgemeinen Formel (I) gemäß der Tabelle 1 auf verschiedene Schadpflanzen und einer Aufwandmenge entsprechend 20 g/ha und niedriger, die gemäß zuvor genannter Versuchsvorschrift erhalten wurden, dargestellt. Tabelle A1a: Nachauflaufwirkung bei 1,25 g/ha gegen ABUTH in %

Digitaria sanguinalis = assay: Post-emergence herbicidal action in greenhouse against DIGSA; conditions: visual rating after ca. 3 weeks
Description: as §1, §2, §3

Matricaria inodora = assay: Post-emergence herbicidal action in greenhouse against MATIN; conditions: visual rating after ca. 3 weeks
Description: as §1, §2, §3

Pharbitis purpurea = assay: Post-emergence herbicidal action in greenhouse against PHBPU; conditions: visual rating after ca. 3 weeks
Description: as §1, §2, §3

Polygonum convolvulus = assay: Post-emergence herbicidal action in greenhouse against POLCO; conditions: visual rating after ca. 3 weeks
Description: as §1, §2, §3

Setaria viridis = assay: Post-emergence herbicidal action in greenhouse against SETVI; conditions: visual rating after ca. 3 weeks
Description: as §1, §2, §3

Veronica persica = assay: Post-emergence herbicidal action in greenhouse against VERPE; conditions: visual rating after ca. 3 weeks
Description: as §1, §2, §3

Viola tricolor = assay: Post-emergence herbicidal action in greenhouse against VIOTR; conditions: visual rating after ca. 3 weeks
Description: as §1, §2, §3

Zea mays = assay: Post-emergence action on crop plants in greenhouse, ZEAMX; conditions: 1,25 g/ha, crop plant, post-emergence, visual rating after ca. 3 weeks; 100% = plants dead, 0% = like control plants
Description: as §1
as §2, with “Kulturpflanzen” for “Unkrautpflanzen”
as §3, with “B1” for “A1”, “B4” for “A11”, “Kulturpflanzen” for “Schadpflanzen”, “B1a:” for “A1a:”, “ZEAMX” for “ABUTH”

Triticum aestivum = assay: Post-emergence action on crop plants in greenhouse, TRZAS; conditions: crop plant, visual rating after ca. 3 weeks, 100% = plants dead, 0% = like control plants
Description: as §1
as §2, with “Kulturpflanzen” for “Unkrautpflanzen”
as §3, with “B1” for “A1”, “B4” for “A11”, “Kulturpflanzen” for “Schadpflanzen”, “B1a:” for “A1a:”, “ZEAMX” for “ABUTH”

Oryza sativa = assay: Post-emergence action on crop plants in greenhouse, ORYZA; conditions: crop plant, visual rating after ca. 3 weeks, 100% = plants dead, 0% = like control plants
Description: as §1
as §2, with “Kulturpflanzen” for “Unkrautpflanzen”
as §3, with “B1” for “A1”, “B4” for “A11”, “Kulturpflanzen” for “Schadpflanzen”, “B1a:” for “A1a:”, “ZEAMX” for “ABUTH”

Brassica napus = assay: Post-emergence action on crop plants in greenhouse, BRSNS; conditions: crop plant; 1,25 g/ha; post-emergence spray, 600 l/ha water; visual rating after ca. 3 weeks vs untreated controls; 100% = plants dead, 0% = like control plants
Description: as §1
Samen von mono- bzw. dikotylen Kulturpflanzen wurden in Kunststoff- oder Holzfasertöpfen in sandigem Lehmboden ausgelegt, mit Erde abgedeckt und im Gewächshaus unter kontrollierten Wachstumsbedingungen angezogen. 2 bis 3 Wochen nach der Aussaat wurden die Versuchspflanzen im Einblattstadium behandelt. Die in Form von benetzbaren Pulvern (WP) oder als Emulsionskonzentrate (EC) formulierten erfindungsgemäßen Verbindungen wurden dann als wässrige Suspension bzw. Emulsion unter Zusatz von 0,5% Additiv mit einer Wasseraufwandmenge von umgerechnet 600 l/ha auf die grünen Pflanzenteile gesprüht. […]

Abutilon theophrasti = assay: Post-emergence herbicidal action in greenhouse against ABUTH; conditions: post-emergence spray, 600 l/ha water, visual rating after ca. 3 weeks vs untreated controls, 100% = plants dead, 0% = like control plants
Description: as §1, §2, §3

Alopecurus myosuroides = assay: Post-emergence herbicidal action in greenhouse against ALOMY; conditions: post-emergence spray, 600 l/ha water, visual rating after ca. 3 weeks vs untreated controls, 100% = plants dead, 0% = like control plants
Description: as §1, §2, §3

Lolium rigidum = assay: Post-emergence herbicidal action in greenhouse against LOLRI; conditions: 20 g/ha; post-emergence spray, 600 l/ha water; visual rating after ca. 3 weeks vs untreated controls; 100% = plants dead, 0% = like control plants
Description: as §1, §2, §3

Compound | Nachauflaufwirkung gegen AMARE (Amaranthus retroflexus; 1,25 g/ha) | Nachauflaufwirkung gegen AMARE (Amaranthus retroflexus; 5 g/ha) | Nachauflaufwirkung gegen AMARE (Amaranthus retroflexus; 20 g/ha) | Nachauflaufwirkung gegen DIGSA (Digitaria sanguinalis; 20 g/ha) | Nachauflaufwirkung gegen MATIN (Matricaria inodora; 20 g/ha) | Nachauflaufwirkung gegen PHBPU (Pharbitis purpurea; 5 g/ha) | Nachauflaufwirkung gegen PHBPU (Pharbitis purpurea; 20 g/ha) | Nachauflaufwirkung gegen POLCO (Polygonum convolvulus; 5 g/ha) | Nachauflaufwirkung gegen POLCO (Polygonum convolvulus; 20 g/ha) | Nachauflaufwirkung gegen SETVI (Setaria viridis; 1,25 g/ha) | Nachauflaufwirkung gegen SETVI (Setaria viridis; 5 g/ha) | Nachauflaufwirkung gegen SETVI (Setaria viridis; 20 g/ha) | Nachauflaufwirkung gegen VERPE (Veronica persica; 20 g/ha) | Nachauflaufwirkung gegen VIOTR (Viola tricolor; 5 g/ha) | Nachauflaufwirkung gegen VIOTR (Viola tricolor; 20 g/ha) | Nachauflaufwirkung gegen ZEAMX (Zea mays) | Nachauflaufwirkung gegen TRZAS (Triticum aestivum; 1,25 g/ha) | Nachauflaufwirkung gegen TRZAS (Triticum aestivum; 5 g/ha) | Nachauflaufwirkung gegen ORYZA (Oryza sativa; 1,25 g/ha) | Nachauflaufwirkung gegen ABUTH (Abutilon theophrasti; 1,25 g/ha) | other results
CC(C)(OC(=O)c1cc(-n2c(=O)cc(C(F)(F)F)n(N)c2=O)ccc1Cl)C(=O)O [I.2-481, 2-({5-[3-Amino-2,6-dioxo-4-(trifluormethyl)-3,6-dihydropyrimidin-1(2H)-yl]-2-chlorbenzoyl}oxy)-2-methylpropansäure] | 90% | 100% | 100% | 100% | 100% | 100% | 100% | 100% | 100% | 80% | 90% | 100% | 100% | 80% | 100% | 20% | 0% | 0% | 0% | – | Nachauflaufwirkung gegen TRZAS (Triticum aestivum; 20 g/ha): 20%; Nachauflaufwirkung gegen ORYZA (Oryza sativa; 5 g/ha): 0%; Nachauflaufwirkung gegen ORYZA (Oryza sativa; 20 g/ha): 0%; Nachauflaufwirkung gegen BRSNS (Brassica napus): 0%
CC(C)(OC(=O)c1cc(-n2c(=O)cc(C(F)(F)F)n(N)c2=O)c(F)cc1Cl)C(=O)OCc1ccccn1 [I.1-286] | 100% | 100% | 100% | 100% | 100% | 100% | 100% | 100% | 100% | 100% | 100% | 100% | 100% | 100% | 100% | 20% | 0% | 10% | 0% | 90% | Nachauflaufwirkung gegen ABUTH (Abutilon theophrasti; 5 g/ha): 100%; Nachauflaufwirkung gegen ABUTH (Abutilon theophrasti; 20 g/ha): 100%; Nachauflaufwirkung gegen ALOMY (Alopecurus myosuroides; 20 g/ha): 90%; Nachauflaufwirkung gegen DIGSA (Digitaria sanguinalis; 5 g/ha): 100%; Nachauflaufwirkung gegen LOLRI (Lolium rigidum): 90%; Nachauflaufwirkung gegen MATIN (Matricaria inodora; 5 g/ha): 90%; Nachauflaufwirkung gegen PHBPU (Pharbitis purpurea; 1,25 g/ha): 100%; Nachauflaufwirkung gegen VERPE (Veronica persica; 1,25 g/ha): 100%; Nachauflaufwirkung gegen VERPE (Veronica persica; 5 g/ha): 100%; Nachauflaufwirkung gegen VIOTR (Viola tricolor; 1,25 g/ha): 90%
COCCOC(=O)C(C)(C)OC(=O)c1cc(-n2c(=O)cc(C(F)(F)F)n(N)c2=O)c(F)cc1Cl [I.1-1] | 100% | 100% | 100% | 100% | 100% | 100% | 100% | 100% | 100% | 100% | 100% | 100% | 100% | 100% | 100% | 0% | 0% | 0% | 0% | 90% | Nachauflaufwirkung gegen ABUTH (Abutilon theophrasti; 5 g/ha): 100%; Nachauflaufwirkung gegen ABUTH (Abutilon theophrasti; 20 g/ha): 100%; Nachauflaufwirkung gegen ALOMY (Alopecurus myosuroides; 5 g/ha): 80%; Nachauflaufwirkung gegen ALOMY (Alopecurus myosuroides; 20 g/ha): 90%; Nachauflaufwirkung gegen DIGSA (Digitaria sanguinalis; 5 g/ha): 100%; Nachauflaufwirkung gegen LOLRI (Lolium rigidum): 90%; Nachauflaufwirkung gegen MATIN (Matricaria inodora; 5 g/ha): 100%; Nachauflaufwirkung gegen PHBPU (Pharbitis purpurea; 1,25 g/ha): 100%; Nachauflaufwirkung gegen VERPE (Veronica persica; 1,25 g/ha): 100%; Nachauflaufwirkung gegen VERPE (Veronica persica; 5 g/ha): 100%; Nachauflaufwirkung gegen VIOTR (Viola tricolor; 1,25 g/ha): 80%
